Results on eight compounds are retold here after ChEMBL document CHEMBL1201862, “PubChem BioAssay data set” (2004).

Structures are written as SMILES.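 Interpolation was linear, between the two tested concentrations surrounding the appropriate level; five concentrations were tested over 48 hours in 96-well plates. Abbreviation: GI50, concentration required for 50% inhibition of growth.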 Calls of active or inactive are those of the source. Cut-off read from the data, not from the text of the source: active = GI50 up to about 1.1 µM and inactive = higher.

Holding throughout (experiment): NCI tumour cell line growth inhibition, 48 h
Test [1] has as its system MOLT-4.
Test [2] concerns KM12.
Test [3] deals with COLO 205.
Test [4] deals with RPMI-8226.
In test [5] the test system is MCF7.
The subject of test [6] is NCI-H522.
The subject of test [7] is SNB-19.
In test [8] the test system is 786-0.
Test [9] deals with OVCAR-4.
Test [10] concerns SK-MEL-2.
Test [11] deals with CCRF-CEM.
Test [12] concerns EKVX.
Test [13] has as its system NCI-H226.
In test [14] the test system is SW-620.
Test [15] deals with K562.
In test [16] the test system is HL-60.
Test [17] has as its system Malme-3M.
Test [18] has as its system ACHN.
Test [19] deals with UACC-62.
In test [20] the test system is SNB-75.

As for `CN(C)CCCNC(=S)S`, the GI50 in test [1], in [2], in test [3], in [4], in test [5] and in [6] was > 100 µM (inactive) each time. For the same compound, the GI50 in [7], in test [8], in test [9], in [10], in [11] and in test [12] was > 100 µM (inactive) throughout. Also, the GI50 in test [13], in test [14], in test [15], in test [16], in [17] and in [18] was > 100 µM (inactive) each time.
Take `Nc1ncnc2c1ncn2C1C(O)C=C(CO)C1O` (stereo not drawn): the GI50 in [2], in test [3], in test [4], in test [5], in test [7] and in test [9] was > 625 µM (inactive) in each case. Also, the GI50 in test [10] was > 625 µM (inactive); in [13] it was > 625 µM (inactive); in [14], > 625 µM (inactive); in [16], 467 µM (inactive); in test [19], > 625 µM (inactive); in test [17], > 625 µM (inactive).
Consider `OC1(c2ccc(Cl)cc2)c2ccc3ccccc3c2C2=N[C@H]3CCCC[C@@H]3N21` (stereo partly drawn), for which the GI50 was 8.99 µM (inactive) in test [1]; 5.16 µM (inactive) in test [2]; 5.81 µM (inactive) in test [3]; 7.73 µM (inactive) in test [4]; 8.45 µM (inactive) in test [5]; 10.3 µM (inactive) in test [6]. The GI50 is 36.8 µM (inactive) in test [7]; > 100 µM (inactive) in [9]; 38.5 µM (inactive) in [10]; 21.7 µM (inactive) in test [11]; 3.09 µM (inactive) in test [12]; 43.8 µM (inactive) in [13]. Moreover, the GI50 is 16.8 µM (inactive) in test [14]; 13.2 µM (inactive) in test [15]; 5.69 µM (inactive) in test [16]; 7.93 µM (inactive) in test [19]; 0.284 µM (active) in test [17]; 18.3 µM (inactive) in test [18].
For `CSc1sc(C)cc1-c1nsc(=O)o1`, the GI50 in [1], in [2], in test [3], in test [4], in test [5] and in test [6] was > 100 µM (inactive) in each case. Moreover, the GI50 in test [7], in test [8], in test [9], in test [11], in [12] and in test [14] was > 100 µM (inactive) in each case. Also, the GI50 in test [15], in test [16], in test [19], in test [17] and in test [18] was > 100 µM (inactive) throughout.
As for `N=c1n(C(=O)N2CCCC2)c2cc(Cl)ccc2n1C1=NCCN1`, the GI50 in [1] is 41.7 µM (inactive); in [2], > 100 µM (inactive); in test [3], > 100 µM (inactive); in [4], 15.7 µM (inactive); in test [5] it was 35.8 µM (inactive); in test [6], 38.6 µM (inactive). Besides, the GI50 in test [7] was > 100 µM (inactive); in [8] it was 54 µM (inactive); in test [9], > 100 µM (inactive); in test [10] it was 33.1 µM (inactive); in [11] it was 41.7 µM (inactive); in test [12], > 100 µM (inactive). The GI50 is > 100 µM (inactive) in test [13]; 52.6 µM (inactive) in test [14]; 40.6 µM (inactive) in test [15]; 38.8 µM (inactive) in test [16]; > 100 µM (inactive) in [19]; 99.8 µM (inactive) in test [17]. Also, in [18], the GI50 is 43.7 µM (inactive).
In the case of `CC(O)(P(=O)(O)O)P(=O)(O)OCC(O)CN1CCOCC1` (stereo not drawn), the GI50 in test [1], in test [2], in [3], in [4], in test [5] and in test [6] was > 100 µM (inactive) each time. Also, the GI50 in test [7], in test [8], in test [11], in test [12], in [13] and in test [14] was > 100 µM (inactive) throughout. Besides, the GI50 in test [15], in test [16], in test [19], in test [17] and in [18] was > 100 µM (inactive) throughout.
Turning to `COc1cc(C(C)c2cc3c(cc2OCCOCCOc2cc4c(cc2C(C)c2cc(OC)c(OC)c(OC)c2)OCO4)OCO3)cc(OC)c1OC` (stereo not drawn), the GI50 in test [1] is > 10 µM (inactive); in [2], > 10 µM (inactive); in test [3] it was > 10 µM (inactive); in [4], > 100 µM (inactive); in test [6], > 10 µM (inactive); in test [20], 19.1 µM (inactive). The GI50 in test [7], in test [8], in [9], in test [10], in test [11] and in [12] was > 10 µM (inactive) in each case. The GI50 was > 10 µM (inactive) in test [13]; > 10 µM (inactive) in test [14]; 36.1 µM (inactive) in [15]; > 10 µM (inactive) in test [16]; > 10 µM (inactive) in [19]; > 10 µM (inactive) in test [17]. Also, in test [18], the GI50 is > 10 µM (inactive).
In the case of `O=c1c2cc(I)ccc2nc(-c2cccs2)n1O`, the GI50 in test [1] was 34.8 µM (inactive); in [2], 32.6 µM (inactive); in [3], > 100 µM (inactive); in test [4] it was 27 µM (inactive); in test [5] it was 50 µM (inactive); in test [6] it was 37.5 µM (inactive). For the same compound, the GI50 is 22.2 µM (inactive) in [7]; 55.2 µM (inactive) in test [8]; 31.6 µM (inactive) in test [9]; 48.6 µM (inactive) in test [10]; 27.7 µM (inactive) in test [11]; 26.4 µM (inactive) in test [12]. In addition, the GI50 in test [13] is 52.6 µM (inactive); in test [14] it was 37 µM (inactive); in test [15], 48.3 µM (inactive); in test [16], 34.3 µM (inactive); in test [19] it was 90.6 µM (inactive); in test [18] it was 46.3 µM (inactive).
